From PubChem BioAssay AID1918944 (Molecular Pharmacology Branch, DTP, NCI, 2023)
Values joined by “and” are separate entries in the source; they are usually repeats but may differ in a detail not shown here. Identical values can stand only once. Each block holds one compound with its values, some of them ahead of it.

Tested on: 786-0 complex spheroid viability
Test: Anticancer human tumor 786-0 cell line growth inhibition;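 also: spheroids exposed to agents for seven days before readout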
Details: for viability, T/C: stronger effect = lower value
In short: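 Complex spheroids of tumor cells with HUVEC and human MSCs, exposed to iadademstat combined with other agents. Each agent tested in half-log steps from near clinical Cmax (else 10 microM top), DMSO ≤0.25%.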

[1] = curve of first compound, second compound 0.1 µM
[2] = curve of first compound, second compound 0.316 µM
[3] = curve of first compound, second compound 1 µM
[4] = curve of first compound, second compound 3.16 µM
[5] = curve of first compound, second compound 10 µM
[6] = second compound 0.1 µM, first compound 0.00316 µM
[7] = second compound 0.1 µM, first compound 0.01 µM
[8] = second compound 0.1 µM, first compound 0.0316 µM
[9] = second compound 0.1 µM, first compound 0.1 µM
[10] = second compound 0.1 µM, first compound 0.316 µM
[11] = second compound 0.1 µM, first compound 1 µM
[12] = second compound 0.316 µM, first compound 0.00316 µM
[13] = second compound 0.316 µM, first compound 0.01 µM
[14] = second compound 0.316 µM, first compound 0.0316 µM
[15] = second compound 0.316 µM, first compound 0.1 µM
[16] = second compound 0.316 µM, first compound 0.316 µM
[17] = second compound 0.316 µM, first compound 1 µM
[18] = second compound 1 µM, first compound 0.00316 µM
[19] = second compound 1 µM, first compound 0.01 µM
[20] = second compound 1 µM, first compound 0.0316 µM
[21] = second compound 1 µM, first compound 0.1 µM
[22] = second compound 1 µM, first compound 0.316 µM
[23] = second compound 1 µM, first compound 1 µM
[24] = second compound 3.16 µM, first compound 0.00316 µM
[25] = second compound 3.16 µM, first compound 0.01 µM
[26] = second compound 3.16 µM, first compound 0.0316 µM
[27] = second compound 3.16 µM, first compound 0.1 µM
[28] = second compound 3.16 µM, first compound 0.316 µM
[29] = second compound 3.16 µM, first compound 1 µM
[30] = second compound 10 µM, first compound 0.00316 µM
[31] = second compound 10 µM, first compound 0.01 µM
[32] = second compound 10 µM, first compound 0.0316 µM
[33] = second compound 10 µM, first compound 0.1 µM
[34] = second compound 10 µM, first compound 0.316 µM
[35] = second compound 10 µM, first compound 1 µM

SMILES: COc1cc(Nc2ncc3c(n2)-c2ccc(Cl)cc2C(c2c(F)cccc2OC)=NC3)ccc1C(=O)O + NC1CCC(NC2CC2c2ccccc2)CC1
IC50 [1]: 609 nM
IC50 [2]: 480 nM
IC50 [3]: 451 nM
IC50 [4]: 233 nM
IC50 [5]: 117 nM
viability, T/C [6]: 114%
viability, T/C [7]: 97.2%
viability, T/C [8]: 80.7%
viability, T/C [9]: 68.8%
viability, T/C [10]: 57.1%
viability, T/C [11]: 44.5%
viability, T/C [12]: 116%
viability, T/C [13]: 93.2%
viability, T/C [14]: 73.2%
viability, T/C [15]: 65.9%
viability, T/C [16]: 54.1%
viability, T/C [17]: 43.7%
viability, T/C [18]: 108%
viability, T/C [19]: 91%
viability, T/C [20]: 71.8%
viability, T/C [21]: 66.9%
viability, T/C [22]: 53.9%
viability, T/C [23]: 42.5%
viability, T/C [24]: 102%
viability, T/C [25]: 82%
viability, T/C [26]: 60.3%
viability, T/C [27]: 59.1%
viability, T/C [28]: 51%
viability, T/C [29]: 40.6%
viability, T/C [30]: 80.2%
viability, T/C [31]: 64.9%
viability, T/C [32]: 53.2%
viability, T/C [33]: 56.4%
viability, T/C [34]: 46.4%
viability, T/C [35]: 39.7%

SMILES: Nc1ccccc1NC(=O)c1ccc(CNC(=O)OCc2cccnc2)cc1 + NC1CC1c1ccc(-c2cccc(O)c2)cc1
IC50 [1]: 1520 nM
IC50 [2]: 1770 nM
IC50 [3]: 1520 nM
IC50 [4]: 1380 nM
IC50 [5]: 1370 nM
viability, T/C (second compound 0.1 µM, first compound 0.00949 µM): 107%
viability, T/C (second compound 0.1 µM, first compound 0.03 µM): 108%
viability, T/C (second compound 0.1 µM, first compound 0.0949 µM): 97.8%
viability, T/C (second compound 0.1 µM, first compound 0.3 µM): 96.1%
viability, T/C (second compound 0.1 µM, first compound 0.949 µM): 66.3%
viability, T/C (second compound 0.1 µM, first compound 3 µM): 25.6%
viability, T/C (second compound 0.316 µM, first compound 0.00949 µM): 113%
viability, T/C (second compound 0.316 µM, first compound 0.03 µM): 110%
viability, T/C (second compound 0.316 µM, first compound 0.0949 µM): 112%
viability, T/C (second compound 0.316 µM, first compound 0.3 µM): 103%
viability, T/C (second compound 0.316 µM, first compound 0.949 µM): 78.8%
viability, T/C (second compound 0.316 µM, first compound 3 µM): 25.8%
viability, T/C (second compound 1 µM, first compound 0.00949 µM): 103%
viability, T/C (second compound 1 µM, first compound 0.03 µM): 114%
viability, T/C (second compound 1 µM, first compound 0.0949 µM): 110%
viability, T/C (second compound 1 µM, first compound 0.3 µM): 91.8%
viability, T/C (second compound 1 µM, first compound 0.949 µM): 71%
viability, T/C (second compound 1 µM, first compound 3 µM): 21.1%
viability, T/C (second compound 3.16 µM, first compound 0.00949 µM): 99.4%
viability, T/C (second compound 3.16 µM, first compound 0.03 µM): 102%
viability, T/C (second compound 3.16 µM, first compound 0.0949 µM): 98%
viability, T/C (second compound 3.16 µM, first compound 0.3 µM): 89.9%
viability, T/C (second compound 3.16 µM, first compound 0.949 µM): 64.3%
viability, T/C (second compound 3.16 µM, first compound 3 µM): 20.7%
viability, T/C (second compound 10 µM, first compound 0.00949 µM): 103%
viability, T/C (second compound 10 µM, first compound 0.03 µM): 101%
viability, T/C (second compound 10 µM, first compound 0.0949 µM): 97.9%
viability, T/C (second compound 10 µM, first compound 0.3 µM): 83.1%
viability, T/C (second compound 10 µM, first compound 0.949 µM): 67.2%
viability, T/C (second compound 10 µM, first compound 3 µM): 17.5%

SMILES: Nc1ncn(C2CC(O)C(CO)O2)c(=O)n1 (configuration not stated) + NC1CC1c1ccc(-c2cccc(O)c2)cc1
IC50 [1]: > 1000 nM
IC50 [2]: > 1000 nM
IC50 [3]: > 1000 nM
IC50 [4]: > 1000 nM
IC50 [5]: > 1000 nM
viability, T/C [6]: 119%
viability, T/C [7]: 122%
viability, T/C [8]: 107%
viability, T/C [9]: 97%
viability, T/C [10]: 99.1%
viability, T/C [11]: 78.4%
viability, T/C [12]: 125%
viability, T/C [13]: 113%
viability, T/C [14]: 107%
viability, T/C [15]: 96.5%
viability, T/C [16]: 88.8%
viability, T/C [17]: 82.3%
viability, T/C [18]: 122%
viability, T/C [19]: 119%
viability, T/C [20]: 107%
viability, T/C [21]: 96.1%
viability, T/C [22]: 90.9%
viability, T/C [23]: 82.5%
viability, T/C [24]: 113%
viability, T/C [25]: 115%
viability, T/C [26]: 95.7%
viability, T/C [27]: 94.8%
viability, T/C [28]: 84%
viability, T/C [29]: 75.6%
viability, T/C [30]: 108%
viability, T/C [31]: 102%
viability, T/C [32]: 97.1%
viability, T/C [33]: 93%
viability, T/C [34]: 78.3%
viability, T/C [35]: 72.9%

SMILES: COc1ccc([C@@H](O)c2cc(-c3ncnc4cc(N5CCOCC5)ccc34)c(F)cc2Cl)nn1 + NC1CCC(NC2CC2c2ccccc2)CC1
IC50 [1]: 8630 nM
IC50 [2]: 8980 nM
IC50 [3]: 7650 nM
IC50 [4]: 7270 nM
IC50 [5]: 4560 nM
viability, T/C [8]: 115%
viability, T/C [9]: 118%
viability, T/C [10]: 119%
viability, T/C [11]: 108%
viability, T/C (second compound 0.1 µM, first compound 3.16 µM): 72.6%
viability, T/C (second compound 0.1 µM, first compound 10 µM): 46.7%
viability, T/C [14]: 127%
viability, T/C [15]: 123%
viability, T/C [16]: 119%
viability, T/C [17]: 110%
viability, T/C (second compound 0.316 µM, first compound 3.16 µM): 72.7%
viability, T/C (second compound 0.316 µM, first compound 10 µM): 47.8%
viability, T/C [20]: 115%
viability, T/C [21]: 116%
viability, T/C [22]: 110%
viability, T/C [23]: 104%
viability, T/C (second compound 1 µM, first compound 3.16 µM): 69.9%
viability, T/C (second compound 1 µM, first compound 10 µM): 44%
viability, T/C [26]: 104%
viability, T/C [27]: 116%
viability, T/C [28]: 104%
viability, T/C [29]: 95.8%
viability, T/C (second compound 3.16 µM, first compound 3.16 µM): 67.4%
viability, T/C (second compound 3.16 µM, first compound 10 µM): 43.4%
viability, T/C [32]: 89.8%
viability, T/C [33]: 81%
viability, T/C [34]: 84.7%
viability, T/C [35]: 81.6%
viability, T/C (second compound 10 µM, first compound 3.16 µM): 56.6%
viability, T/C (second compound 10 µM, first compound 10 µM): 35.8%

SMILES: Nc1ccccc1NC(=O)c1ccc(CNC(=O)OCc2cccnc2)cc1
viability, T/C (compound 0.00949 µM): 98.3% and 104%
viability, T/C (compound 0.03 µM): 103% and 113%
viability, T/C (compound 0.0949 µM): 102% and 108%
viability, T/C (compound 0.3 µM): 93.9% and 93.5%
viability, T/C (compound 0.949 µM): 68% and 73.5%
viability, T/C (compound 3 µM): 14.8% and 23%
IC50 (curve of compound): 1400 nM and 1610 nM

Further lines, with some results ahead:

IC50 (curve of compound): 2.38 nM and 3.45 nM
SMILES: CC(C)CC(NC(=O)C(Cc1ccccc1)NC(=O)c1cnccn1)B(O)O (configuration not stated)
viability, T/C (compound 0.000316 µM): 100% and 106%
viability, T/C (compound 0.001 µM): 107% and 108%
viability, T/C (compound 0.00316 µM): 32.1% and 53.2%
viability, T/C (compound 0.01 µM): 2.29% and 6.77%
viability, T/C (compound 0.0316 µM): 0.17% and 1.21%
viability, T/C (compound 0.1 µM): 0.2% and 0.37%

IC50 (curve of compound): > 10000 nM
SMILES: O=C(c1cc(Cc2n[nH]c(=O)c3ccccc23)ccc1F)N1CCN(C(=O)C2CC2)CC1
viability, T/C (compound 0.0316 µM): 103%
viability, T/C (compound 0.1 µM): 103%
viability, T/C (compound 0.316 µM): 104% and 103%
viability, T/C (compound 1 µM): 96.8% and 102%
viability, T/C (compound 3.16 µM): 85% and 97%
viability, T/C (compound 10 µM): 61.8% and 74.5%

IC50 (curve of compound): 7010 nM and 5890 nM
SMILES: COc1ccc([C@@H](O)c2cc(-c3ncnc4cc(N5CCOCC5)ccc34)c(F)cc2Cl)nn1
viability, T/C (compound 0.0316 µM): 105% and 102%
viability, T/C (compound 0.1 µM): 105% and 103%
viability, T/C (compound 0.316 µM): 107% and 99.3%
viability, T/C (compound 1 µM): 94.2% and 89.3%
viability, T/C (compound 3.16 µM): 66.3% and 59.2%
viability, T/C (compound 10 µM): 42.8% and 42.1%

IC50 (curve of compound): 18.5 nM and 27.6 nM
SMILES: O=C(C=Cn1cnc(-c2cc(C(F)(F)F)cc(C(F)(F)F)c2)n1)NNc1cnccn1
viability, T/C (compound 0.00316 µM): 90.7% and 92.3%
viability, T/C (compound 0.01 µM): 61.1% and 63.3%
viability, T/C (compound 0.0316 µM): 39.5% and 47.2%
viability, T/C (compound 0.1 µM): 29% and 39.9%
viability, T/C (compound 0.316 µM): 20.6% and 32.5%
viability, T/C (compound 1 µM): 15.3% and 25.6%

IC50 (curve of compound): 164 nM and 280 nM
SMILES: Nc1ncn(C2CC(O)C(CO)S2)c(=O)n1 (configuration not stated)
viability, T/C (compound 0.000949 µM): 110% and 99.7%
viability, T/C (compound 0.003 µM): 109% and 112%
viability, T/C (compound 0.00949 µM): 117% and 112%
viability, T/C (compound 0.03 µM): 103% and 102%
viability, T/C (compound 0.0949 µM): 67.7% and 83.2%
viability, T/C (compound 0.3 µM): 30.5% and 47.9%
